Reference: US12559506B2, “Indazole based compounds and associated methods of use” (Arvinas Operations, Inc., priority 2021, dated 2026)
Read-outs that look alike come from different tables or passages of the source.

Target: T1, LRRK2 (endogenous, HiBit tagged) (Homo sapiens, UniProt Q5S007)
T1 construct: endogenous in cells; host or cells: HEK293 cells with HiBit knock-in at the endogenous LRRK2 locus, stably expressing firefly luciferase
Assay: Endogenous LRRK2 degradation assay, endogenous gene C-terminally HiBit-tagged in HEK293 cells (Nano-Glo Dual Luciferase)
Assay type: cell-based
Description: Exemplary Assay for Testing LRRK2 Degradation Driven by Exemplary Hetero-Bifunctional Compounds Designed to Target LRRK2
The assay measures the degradation of LRRK2 in cells where the C-terminus (3′) of the endogenous gene has been tagged with a HiBit sequence in HEK293 cells. The cells also express firefly luciferase, expressed from a Cytomegalovirus promoter and introduced into the HiBit tagged cells and stably expressed. The Nano-Glo® Dual Luciferase Reporter Assay System (Promega™, Madison, WI) was utilized.
Day 1—Preparation of Compound and Assay Plates. Two sets of plates were prepared: a triplicate set for the HiBit assay in white 384-well plates and a triplicate set of plate in black 384-well plates for the Alamar Blue cell viability assay. Briefly, the growth media (DMEM+Glutamax-10% fetal bovine serum-1% Penicillin-Streptomicin) from two T128 flasks was aspirated from the flasks. Cells were washed with Dulbecco's Phosphate Buffered Saline (dPBS) and aspirated. Trypsin (3 mL per flask) was added and the flasks were incubated for 2-3 minutes.
Ten mL of OptiMEM-10% fetal bovine-1% penicillin-streptomycin (hereinafter, “OptiMEM media”) was added to the flask and the cells and transferred to a 50 mL conical tube. A cell count (25 ul of cell into Effendorf vial+25 ul of Trypan Blue Stain) was performed and the cell density adjusted to 15,000 cell/45 μl/well (3.33×10^5/mL) in OptiMEM media.
Fourty-five microliters of the cell suspension (15,000 cells) was aliquoted to each well of the white 384-well plate. The plates incubated at room temperature for 10 minutes before being placed in the 37° C.+5% CO2 incubator overnight
Day 2—Compound Treatment. Exemplary compounds were prepared at a 1 mM starting concentration and 1:3 serial dilution for 11 points CRC prepared and stored in the freezer. The Master Compound Plate was thawed overnight at room temperature. DMSO (20 μL) was added into column 24 of the Master Compound Plate for negative control and 20 μL of 300 μM of Compound 4 in column 23 as positive control.
Intermediate Compound Plate with 4% DMSO in OptiMEM Media. DMSO was added to warm OptiMEM media to achieve a 4% DMSO solution (approximately 50 mL/plate). One-hundred microliters of the OptiMEM-4% DMSO was aliquoted to each well of 384-Well Deep Well Microplates.
The Master Compound Plate and the Intermediate Compound Plate were spun down.
One microliter of compound from the Master Compound Plate was transferred into the Intermediate plate (a 1:100 dilution). The diluted mixture was mixed and 5 μL transferred into the assay plate (a 1:10 dilution) for the final starting concentration of 1 μM. The Treated Assay plates were incubated for 24 hours at 37° C.+5% CO2. The Master Compound Plate was sealed and store at room temperature for a second run that was performed within a week.
Day 3—HiBit Assay. Five microliters of Alamar Blue was added to each well of the black 384-well plates. The plates were incubated for 2 hours in the incubator (37° C.+5% CO2) and at room temperature for one hour. Fluorescence of each plate was read on a plated reader for the Alamar Blue viability assay.
One set of white assay plates was warmed to room temperature (45 minute).
The One Glo luciferase mixture was prepared. The media from white 384-well assay plates was aspirated. Twenty-five μL of the One Glo luciferase mixture was added to each well of the assay plates. The plates were incubated on the bench (room temperature) for 45 minutes, including 10 minutes of shaking at 700 rpm. The luminescence of each plate was read on a plate reader.
1:100 DLR substrate and 1:100 LgBiT Protein dilution were added to the Promega Stop and Glo buffer and mixed just before addition to assay plates. Twenty-five microliters of Stop and Glo mixture was added to each well. Assay plates incubated for at least 45 minutes, including 10 minutes of shaking at 700 rpm. The luminescence of each plate was read on a plate reader.
Analysis of LRRK2 HiBit Screening assays. […]

[1] = endogenous HiBit-tagged LRRK2 in HEK293 cells, 24 hours, read-out: **Endogenous WT Dmax (%)
[2] = endogenous HiBit-tagged LRRK2 in HEK293 cells, 24 hours, read-out: *Endogenous WT DC50
[3] = endogenous HiBit-tagged LRRK2, HEK293 cells, 24 hours, read-out: **Endogenous WT Dmax (%)
[4] = endogenous HiBit-tagged LRRK2, HEK293 cells, 24 hours, read-out: *Endogenous WT DC50

T1 sequence (Q5S007 whole entry): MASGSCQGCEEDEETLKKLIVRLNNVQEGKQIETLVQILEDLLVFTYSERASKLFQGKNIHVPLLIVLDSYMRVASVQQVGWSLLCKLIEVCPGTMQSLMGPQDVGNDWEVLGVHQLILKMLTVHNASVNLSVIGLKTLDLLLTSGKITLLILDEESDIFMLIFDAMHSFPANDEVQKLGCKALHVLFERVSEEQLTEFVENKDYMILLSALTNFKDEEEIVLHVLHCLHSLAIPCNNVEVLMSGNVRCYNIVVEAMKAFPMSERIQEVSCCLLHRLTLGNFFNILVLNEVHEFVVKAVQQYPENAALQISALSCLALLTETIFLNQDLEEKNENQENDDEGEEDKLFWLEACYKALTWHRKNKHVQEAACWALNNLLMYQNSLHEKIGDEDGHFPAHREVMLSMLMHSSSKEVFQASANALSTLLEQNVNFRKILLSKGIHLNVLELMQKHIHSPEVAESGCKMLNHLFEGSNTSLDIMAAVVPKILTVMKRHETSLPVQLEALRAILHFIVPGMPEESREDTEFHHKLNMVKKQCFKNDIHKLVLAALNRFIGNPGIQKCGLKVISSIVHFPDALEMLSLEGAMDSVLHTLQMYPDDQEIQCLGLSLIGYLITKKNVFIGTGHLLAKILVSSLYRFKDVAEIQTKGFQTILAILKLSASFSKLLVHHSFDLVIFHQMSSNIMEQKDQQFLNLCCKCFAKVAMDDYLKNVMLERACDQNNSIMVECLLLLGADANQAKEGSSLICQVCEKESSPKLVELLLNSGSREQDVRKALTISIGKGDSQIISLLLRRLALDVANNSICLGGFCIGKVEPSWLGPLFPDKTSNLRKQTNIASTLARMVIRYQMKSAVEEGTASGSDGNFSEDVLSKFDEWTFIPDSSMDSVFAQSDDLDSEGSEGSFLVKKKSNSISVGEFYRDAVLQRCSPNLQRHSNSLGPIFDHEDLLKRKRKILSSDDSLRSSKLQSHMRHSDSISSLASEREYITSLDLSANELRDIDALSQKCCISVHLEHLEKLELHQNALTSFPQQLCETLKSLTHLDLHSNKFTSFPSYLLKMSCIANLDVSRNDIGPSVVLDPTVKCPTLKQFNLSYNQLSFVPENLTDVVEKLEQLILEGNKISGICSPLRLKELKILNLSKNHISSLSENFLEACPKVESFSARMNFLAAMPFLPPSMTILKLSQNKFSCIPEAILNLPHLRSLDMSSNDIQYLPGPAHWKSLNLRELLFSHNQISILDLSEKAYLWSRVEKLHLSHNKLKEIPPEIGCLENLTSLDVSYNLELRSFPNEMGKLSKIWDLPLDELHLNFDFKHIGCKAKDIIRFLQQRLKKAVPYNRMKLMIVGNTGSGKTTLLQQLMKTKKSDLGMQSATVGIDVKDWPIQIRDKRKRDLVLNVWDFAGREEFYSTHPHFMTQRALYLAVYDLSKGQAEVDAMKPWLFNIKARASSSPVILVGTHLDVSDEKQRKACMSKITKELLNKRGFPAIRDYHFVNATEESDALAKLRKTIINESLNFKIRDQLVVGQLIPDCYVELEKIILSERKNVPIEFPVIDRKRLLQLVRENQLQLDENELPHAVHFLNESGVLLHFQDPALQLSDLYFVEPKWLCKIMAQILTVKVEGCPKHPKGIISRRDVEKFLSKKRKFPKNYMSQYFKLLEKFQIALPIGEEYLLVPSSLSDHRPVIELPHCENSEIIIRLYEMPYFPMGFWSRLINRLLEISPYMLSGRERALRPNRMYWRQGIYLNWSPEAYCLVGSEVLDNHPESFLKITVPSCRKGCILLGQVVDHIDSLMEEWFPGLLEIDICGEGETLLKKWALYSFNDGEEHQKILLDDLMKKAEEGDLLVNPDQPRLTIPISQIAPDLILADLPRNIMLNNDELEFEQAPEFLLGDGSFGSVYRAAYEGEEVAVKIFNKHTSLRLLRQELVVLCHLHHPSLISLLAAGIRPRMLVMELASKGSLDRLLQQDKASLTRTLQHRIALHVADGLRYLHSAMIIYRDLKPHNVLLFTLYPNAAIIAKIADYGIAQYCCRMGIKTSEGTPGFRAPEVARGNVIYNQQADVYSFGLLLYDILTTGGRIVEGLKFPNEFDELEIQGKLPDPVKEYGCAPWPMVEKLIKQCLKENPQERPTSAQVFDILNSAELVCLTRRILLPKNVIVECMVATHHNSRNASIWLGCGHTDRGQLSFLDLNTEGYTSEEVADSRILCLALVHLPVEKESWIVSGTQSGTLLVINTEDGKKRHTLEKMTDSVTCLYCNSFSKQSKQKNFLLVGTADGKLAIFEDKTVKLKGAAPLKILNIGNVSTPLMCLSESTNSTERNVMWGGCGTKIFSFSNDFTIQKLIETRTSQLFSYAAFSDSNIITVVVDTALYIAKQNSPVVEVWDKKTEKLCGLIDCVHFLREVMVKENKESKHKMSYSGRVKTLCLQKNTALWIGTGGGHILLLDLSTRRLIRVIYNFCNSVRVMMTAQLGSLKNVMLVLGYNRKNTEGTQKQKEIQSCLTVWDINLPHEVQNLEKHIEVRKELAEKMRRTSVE

Compound | Dmax [1] | DC50 [2] | also measured
CC1(Oc2ccc3n[nH]c(-c4cc(N5CCC(O[C@H]6CC[C@H](OC7CCN(c8ccc9c(c8F)CN(C8CCC(=O)NC8=O)C9=O)CC7)C6)CC5)ncn4)c3c2)CC1 (mixture of isomers) [Compound 240, 3-[4-fluoro-5-[4-[(1S,3S)-3-[[1-[6-[5-(1-methylcyclopropoxy)-2H-indazol-3-yl]pyrimidin-4-yl]-4-piperidyl]oxy]cyclopentoxy]-1-piperidyl]-1-oxo-isoindolin-2-yl]piperidine-2,6-dione and 3-[4-fluoro-5-[4-[(1R,3R)-3-[[1-[6-[5-(1-methylcyclopropoxy)-2H-indazol-3-yl]pyrimidin-4-yl]-4-piperidyl]oxy]cyclopentoxy]-1-piperidyl]-1-oxo-isoindolin-2-yl]piperidine-2,6-dione] | – | – | DC50 (endogenous HiBit-tagged LRRK2 in HEK293 cells, 24 hours treatment, read-out: Endogenous WT DC50): < 10 nM; Dmax (endogenous HiBit-tagged LRRK2 in HEK293 cells, 24 hours treatment, read-out: Endogenous WT Dmax): 50 to 70%
CC1(Oc2ccc3[nH]nc(-c4cc(N5CCN(C[C@@H]6CC[C@@H](CN7CCN(c8ccc9c(c8F)CN(C8CCC(=O)NC8=O)C9=O)CC7)OC6)CC5)ncn4)c3c2)CC1 (single isomer, unassigned) [Compound 305] | – | – | Dmax (endogenous HiBit-tagged LRRK2 in HEK293 cells, 24 hours treatment, read-out: **Endogenous WT Dmax (%)): 50 to 70%; DC50 (endogenous HiBit-tagged LRRK2 in HEK293 cells, 24 hours treatment, read-out: *Endogenous WT DC50): < 10 nM
C[C@H]1CN(c2cc(-c3[nH]nc4ccc(OC5(C)CC5)cc34)ncn2)CCN1CCC1CCN(C(=O)C2CCN(c3ccc4c(c3)C(=O)N(C3CCC(=O)NC3=O)C4=O)CC2)CC1 (stereo partly drawn) [Compound 57, 2-(2,6-dioxopiperidin-3-yl)-5-[4-(4-{2-[(2S)-2-methyl-4-{6-[5-(1-methylcyclopropoxy)-2H-indazol-3-yl]pyrimidin-4-yl}piperazin-1-yl]ethyl}piperidine-1-carbonyl)piperidin-1-yl]-2,3-dihydro-1H-isoindole-1,3-dione] | ≥ 70% | < 10 nM | –
C[C@H]1CN(c2cc(-c3[nH]nc4ccc(OC5(C)CC5)cc34)ncn2)CCN1CCN1CCC(C(=O)N2CCN(c3ccc4c(c3)C(=O)N(C3CCC(=O)NC3=O)C4=O)CC2)CC1 (stereo partly drawn) [Compound 58, 2-(2,6-dioxopiperidin-3-yl)-5-[4-(1-{2-[(2S)-2-methyl-4-{6-[5-(1-methylcyclopropoxy)-2H-indazol-3-yl]pyrimidin-4-yl}piperazin-1-yl]ethyl}piperidine-4-carbonyl)piperazin-1-yl]-2,3-dihydro-1H-isoindole-1,3-dione] | 50 to 70% | < 10 nM | –
C[C@H]1CN(c2cc(-c3[nH]nc4ccc(OC5(C)CC5)cc34)ncn2)CCN1CC(=O)N1CCC(CN2CCN(c3ccc4c(c3)C(=O)N(C3CCC(=O)NC3=O)C4=O)CC2)CC1 (stereo partly drawn) [Compound 59, 2-(2,6-dioxo-3-piperidyl)-5-[4-[[1-[2-[(2S)-2-methyl-4-[6-[5-(1-methylcyclopropoxy)-2H-indazol-3-yl]pyrimidin-4-yl]piperazin-1-yl]acetyl]-4-piperidyl]methyl]piperazin-1-yl]isoindoline-1,3-dione] | ≥ 70% | < 10 nM | –
CC1(Oc2ccc3n[nH]c(-c4cc(N5CCC(CO[C@H]6CC[C@H](CN7CCN(c8ccc9c(c8)C(=O)N(C8CCC(=O)NC8=O)C9=O)CC7)CC6)CC5)ncn4)c3c2)CC1 (some centres unmarked) [Compound 60, 2-(2,6-dioxo-3-piperidyl)-5-[4-[[4-[[1-[6-[5-(1-methylcyclopropoxy)-2H-indazol-3-yl]pyrimidin-4-yl]-4-piperidyl]methoxy]cyclohexyl]methyl]piperazin-1-yl]isoindoline-1,3-dione] | ≥ 70% | < 10 nM | –
CC1(Oc2ccc3n[nH]c(-c4cc(N5CCC(COC6CCN(C(=O)C7CCN(c8ccc9c(c8)C(=O)N(C8CCC(=O)NC8=O)C9=O)CC7)CC6)CC5)ncn4)c3c2)CC1 (centres unmarked) [Compound 62, 2-(2,6-dioxo-3-piperidyl)-5-[4-[4-[[1-[6-[5-(1-methylcyclopropoxy)-2H-indazol-3-yl]pyrimidin-4-yl]-4-piperidyl]methoxy]piperidine-1-carbonyl]-1-piperidyl]isoindoline-1,3-dione] | ≥ 70% | < 10 nM | –
C[C@H]1CN(c2cc(-c3[nH]nc4ccc(OC5(C)CC5)cc34)ncn2)CCN1CCN1CCN(CC2CCN(c3ccc4c(c3)CN(C3CCC(=O)NC3=O)C4=O)CC2)CC1 (stereo partly drawn) [Compound 65, 3-(5-{4-[(4-{2-[(2S)-2-methyl-4-{6-[5-(1-methylcyclopropoxy)-2H-indazol-3-yl]pyrimidin-4-yl}piperazin-1-yl]ethyl}piperazin-1-yl)methyl]piperidin-1-yl}-1-oxo-2,3-dihydro-1H-isoindol-2-yl)piperidine-2,6-dione] | ≥ 70% | < 10 nM | –
CC1(Oc2ccc3n[nH]c(-c4cc(N5CCN(CCN6CCN(CC7CCN(c8ccc9c(c8)CN(C8CCC(=O)NC8=O)C9=O)CC7)CC6)CC5)ncn4)c3c2)CC1 (centres unmarked) [Compound 66, 3-{5-[4-({4-[2-(4-{6-[5-(1-methylcyclopropoxy)-2H-indazol-3-yl]pyrimidin-4-yl}piperazin-1-yl)ethyl]piperazin-1-yl}methyl)piperidin-1-yl]-1-oxo-2,3-dihydro-1H-isoindol-2-yl}piperidine-2,6-dione] | ≥ 70% | < 10 nM | –
CC1(Oc2ccc3[nH]nc(-c4cc(C5CCN(CC6CCN(CC7CCN(c8ccc9c(c8)C(=O)N(C8CCC(=O)NC8=O)C9=O)CC7)CC6)CC5)ncn4)c3c2)CC1 (centres unmarked) [Compound 105, 2-(2,6-dioxo-3-piperidyl)-5-[4-[[4-[[4-[6-[5-(1-methylcyclopropoxy)-1H-indazol-3-yl]pyrimidin-4-yl]-1-piperidyl]methyl]-1-piperidyl]methyl]-1-piperidyl]isoindoline-1,3-dione] | 50 to 70% | ≥ 100 nM | –
C[C@H]1CN(c2cc(-c3n[nH]c4ccc(OC5(C)CC5)cc34)ncn2)CCN1CC1(F)CN(CC2CCN(c3ccc4c(c3)C(=O)N(C3CCC(=O)NC3=O)C4=O)CC2)C1 (stereo partly drawn) [Compound 123, 2-(2,6-dioxopiperidin-3-yl)-5-{4-[(3-fluoro-3-{[(2S)-2-methyl-4-{6-[5-(1-methylcyclopropoxy)-1H-indazol-3-yl]pyrimidin-4-yl}piperazin-1-yl]methyl}azetidin-1-yl)methyl]piperidin-1-yl}-2,3-dihydro-1H-isoindole-1,3-dione] | < 50% | < 10 nM | –
CC1(Oc2cc3c(-c4cc(N5CCC(CN6CCN(CC7CCN(c8ccc9c(c8)C(=O)N(C8CCC(=O)NC8=O)C9=O)CC7)CC6)CC5)ncn4)n[nH]c3cn2)CC1 (centres unmarked) [Compound 178, 2-(2,6-dioxo-3-piperidyl)-5-[4-[[4-[[1-[6-[5-(1-methylcyclopropoxy)-1H-pyrazolo[3,4-c]pyridin-3-yl]pyrimidin-4-yl]-4-piperidyl]methyl]piperazin-1-yl]methyl]-1-piperidyl]isoindoline-1,3-dione] | – | – | Dmax [3]: ≥ 70%; DC50 [4]: < 10 nM
CC1(Oc2ccc3[nH]nc(-c4cc(N5CCN(CC6(F)CCN(CC7CCN(c8cccc9c8CN(C8CCC(=O)NC8=O)C9=O)CC7)CC6)CC5)ncn4)c3c2)CC1 (centres unmarked) [Compound 179, 3-[4-[4-[[4-fluoro-4-[[4-[6-[5-(1-methylcyclopropoxy)-2H-indazol-3-yl]pyrimidin-4-yl]piperazin-1-yl]methyl]-1-piperidyl]methyl]-1-piperidyl]-1-oxo-isoindolin-2-yl]piperidine-2,6-dione] | – | – | Dmax [3]: 50 to 70%; DC50 [4]: < 10 nM
